From patent US8546343B2, “Aminoglycoside antibiotics targeting bacterial 16S ribosomal RNA” (Eidgenoessische Technische Hochschule Zurich, priority 2007, dated 2013)
Converted amounts (≈) assume the structure as drawn.

Key:
[1] = system: AG015 S. aureus BM3002 (ANT4′); assay: Standard MIC assay, AG015; format: cell-based, Staphylococcus aureus; conditions: S. aureus BM3002 (ANT4′)
Experimental: (§1) Selected compounds of the present invention were tested for antibiotic susceptibility using clinical isolates of Staphylococci, Enterococci and Escherichia coli as well as strains carrying defined resistance determinants and compared to well known antibiotics of the state of the art. Drug susceptibility was determined in standard MIC assays, i.e. by determination of the minimal drug concentration required to inhibit bacterial growth in vitro.

[2] = system: M. smegmatis ΔrrnB 1491C (16S rRNA position 1491 C, eukaryotic mitochondrial ribosome); assay: MIC, recombinant M. smegmatis with mutant ribosomes 1491C; format: cell-based, Mycobacterium smegmatis; conditions: M. smegmatis ΔrrnB 1491C mutant ribosomes; 72 h at 37° C.
Method in brief: (§2)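 M. smegmatis single-rRNA-operon strain carrying the indicated 16S rRNA decoding-site alleles, introduced into the chromosomal operon and confirmed by sequencing. Colony-purified cultures were grown in LB with 0.05% Tween 80 and started at OD600 0.025. MIC was read in microtiter format against twofold drug dilutions.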

[3] = system: AG014 Staph. epi. clinical isolate; assay: Standard MIC assay, AG014; format: cell-based, Staphylococcus epidermidis
Experimental: as §1

[4] = system: AG008 E. coli BM13 (ANT2″); assay: Standard MIC assay, AG008; format: cell-based, Escherichia coli; conditions: E. coli BM13 (ANT2″)
Experimental: as §1

[5] = system: AG009 E. coli BM13 AAC(6′)-1B; assay: Standard MIC assay, AG009; format: cell-based, Escherichia coli; conditions: E. coli BM13 AAC(6′)-1B
Experimental: as §1

AG017 E. faecalis JH2-2 = assay: Standard MIC assay, AG017; format: cell-based, Enterococcus faecalis
Experimental: as §1

[6] = system: AG001 E. coli clinical isolate; assay: Standard MIC assay, AG001; format: cell-based, Escherichia coli
Experimental: as §1

[7] = system: AG019 E. faecalis JH2-2 (APH2″ AAC6′); assay: Standard MIC assay, AG019; format: cell-based, Enterococcus faecalis; conditions: E. faecalis JH2-2 (APH2″ AAC6′)
Experimental: as §1

[8] = system: AG002 E. coli clinical isolate; assay: Standard MIC assay, AG002; format: cell-based, Escherichia coli
Experimental: as §1

[9] = system: M. smegmatis ΔrrnB 1491A (16S rRNA position 1491 A, eukaryotic cytosolic ribosomes); assay: MIC, recombinant M. smegmatis with mutant ribosomes 1491A; format: cell-based, Mycobacterium smegmatis; conditions: M. smegmatis ΔrrnB 1491A mutant ribosomes; 72 h at 37° C.
Method in brief: as §2

[10] = system: AG003 E. coli clinical isolate; assay: Standard MIC assay, AG003; format: cell-based, Escherichia coli
Experimental: as §1

[11] = system: M. smegmatis ΔrrnB 1408G (16S rRNA position 1408 G, eukaryotic cytosolic ribosomes); assay: MIC, recombinant M. smegmatis with mutant ribosomes 1408G; format: cell-based, Mycobacterium smegmatis; conditions: M. smegmatis ΔrrnB 1408G mutant ribosomes; 72 h at 37° C.
Method in brief: as §2

AG006 E. coli BM13 = assay: Standard MIC assay, AG006; format: cell-based, Escherichia coli
Experimental: as §1

[12] = system: AG004 E. coli clinical isolate; assay: Standard MIC assay, AG004; format: cell-based, Escherichia coli
Experimental: as §1

[13] = system: AG007 E. coli BM13 (AAC3); assay: Standard MIC assay, AG007; format: cell-based, Escherichia coli; conditions: E. coli BM13 (AAC3)
Experimental: as §1

[14] = system: AG011 Staph. aureus clinical isolate; assay: Standard MIC assay, AG011; format: cell-based, Staphylococcus aureus
Experimental: as §1

[15] = system: AG013 Staph. epi. clinical isolate; assay: Standard MIC assay, AG013; format: cell-based, Staphylococcus epidermidis
Experimental: as §1

[16] = system: M. smegmatis ΔrrnB (bacterial ribosomes); assay: MIC, recombinant M. smegmatis with bacterial (wild-type) ribosomes; format: cell-based, Mycobacterium smegmatis; conditions: 72 h at 37° C.
Method in brief: as §2

AG016 S. aureus BM3002 = assay: Standard MIC assay, AG016; format: cell-based, Staphylococcus aureus
Experimental: as §1

Molecule: NC[C@@H]1O[C@H](O[C@H]2[C@@H](O)[C@H](O[C@@H]3[C@@H](O)[C@H](N)C[C@H](N)[C@H]3O[C@H]3O[C@@H]4CO[C@@H](c5ccc(C(F)(F)F)cc5)O[C@H]4[C@H](O)[C@H]3N)O[C@@H]2CO)[C@H](N)[C@@H](O)[C@@H]1O [Compound 5.17, 4′,6′-O-p-Trifluoromethylbenzylideneparomomycin]
- Minimal inhibitory concentrations AG015 [1]: 32 µg/mL (≈ 41.5 µM)
- minimal inhibitory concentrations ΔrrnB 1491C [2]: 512 µg/mL
- Minimal inhibitory concentrations AG014 [3]: 4 µg/mL (≈ 5.18 µM)
- Minimal inhibitory concentrations AG008 [4]: 32 µg/mL (≈ 41.5 µM)
- Minimal inhibitory concentrations AG009 [5]: 64 to 128 µg/mL
- Minimal inhibitory concentrations AG017 (AG017 E. faecalis JH2-2): 32 µg/mL (≈ 41.5 µM)
- Minimal inhibitory concentrations AG001 [6]: 32 to 64 µg/mL
- Minimal inhibitory concentrations AG019 [7]: 128 µg/mL (≈ 166 µM)
- Minimal inhibitory concentrations AG002 [8]: 32 to 64 µg/mL
- minimal inhibitory concentrations ΔrrnB 1491A [9]: 512 µg/mL
- Minimal inhibitory concentrations AG003 [10]: 32 to 64 µg/mL
- minimal inhibitory concentrations ΔrrnB 1408G [11]: >512 µg/mL
- Minimal inhibitory concentrations AG006 (AG006 E. coli BM13): 32 µg/mL (≈ 41.5 µM)
- Minimal inhibitory concentrations AG004 [12]: 32 µg/mL (≈ 41.5 µM)
- Minimal inhibitory concentrations AG007 [13]: 32 µg/mL (≈ 41.5 µM)
- Minimal inhibitory concentrations AG011 [14]: 4 µg/mL (≈ 5.18 µM)
- Minimal inhibitory concentrations AG013 [15]: 4 to 8 µg/mL
- minimal inhibitory concentrations ΔrrnB [16]: 2 to 4 µg/mL
- Minimal inhibitory concentrations AG016 (AG016 S. aureus BM3002): 8 µg/mL (≈ 10.4 µM)

Molecule: NC[C@@H]1O[C@H](O[C@H]2[C@@H](O)[C@H](O[C@@H]3[C@@H](O)[C@H](N)C[C@H](N)[C@H]3O[C@H]3O[C@H](CO)[C@@H](OCCCc4ccccc4)[C@H](O)[C@H]3N)O[C@@H]2CO)[C@H](N)[C@@H](O)[C@@H]1O [Compound 19c, 4′-p-(3-phenylpropyl)paromomycin]
- Minimal inhibitory concentrations AG015 [1]: 16 µg/mL (≈ 21.8 µM)
- minimal inhibitory concentrations ΔrrnB 1491C [2]: 512 µg/mL
- Minimal inhibitory concentrations AG014 [3]: 2 µg/mL (≈ 2.73 µM)
- Minimal inhibitory concentrations AG008 [4]: 8 to 16 µg/mL
- Minimal inhibitory concentrations AG009 [5]: 32 µg/mL (≈ 43.6 µM)
- Minimal inhibitory concentrations AG017 (AG017 E. faecalis JH2-2): 8 to 16 µg/mL
- Minimal inhibitory concentrations AG001 [6]: 16 to 32 µg/mL
- Minimal inhibitory concentrations AG019 [7]: 32 µg/mL (≈ 43.6 µM)
- Minimal inhibitory concentrations AG002 [8]: 16 µg/mL (≈ 21.8 µM)
- minimal inhibitory concentrations ΔrrnB 1491A [9]: ≧512 μg/ml
- Minimal inhibitory concentrations AG003 [10]: 8 to 16 µg/mL
- minimal inhibitory concentrations ΔrrnB 1408G [11]: ≧512 μg/ml
- Minimal inhibitory concentrations AG006 (AG006 E. coli BM13): 8 to 16 µg/mL
- Minimal inhibitory concentrations AG004 [12]: 16 µg/mL (≈ 21.8 µM)
- Minimal inhibitory concentrations AG007 [13]: 8 to 16 µg/mL
- Minimal inhibitory concentrations AG013 [15]: 4 to 8 µg/mL
- minimal inhibitory concentrations ΔrrnB [16]: 8 to 16 µg/mL
- Minimal inhibitory concentrations AG016 (AG016 S. aureus BM3002): 4 µg/mL (≈ 5.45 µM)

Molecule: NC[C@@H]1O[C@H](O[C@H]2[C@@H](O)[C@H](O[C@@H]3[C@@H](O)[C@H](N)C[C@H](N)[C@H]3O[C@H]3O[C@H](CO)[C@@H](OCc4ccc(Cl)cc4)[C@H](O)[C@H]3N)O[C@@H]2CO)[C@H](N)[C@@H](O)[C@@H]1O [Compound 19a, 4′-p-chlorobenzylparomomycin]
- Minimal inhibitory concentrations AG015 [1]: 8 to 16 µg/mL
- minimal inhibitory concentrations ΔrrnB 1491C [2]: >512 µg/mL
- Minimal inhibitory concentrations AG014 [3]: 2 µg/mL (≈ 2.7 µM)
- Minimal inhibitory concentrations AG008 [4]: 8 to 16 µg/mL
- Minimal inhibitory concentrations AG009 [5]: 32 µg/mL (≈ 43.2 µM)
- Minimal inhibitory concentrations AG017 (AG017 E. faecalis JH2-2): 8 to 16 µg/mL
- Minimal inhibitory concentrations AG001 [6]: 8 to 16 µg/mL
- Minimal inhibitory concentrations AG019 [7]: 32 to 64 µg/mL
- Minimal inhibitory concentrations AG002 [8]: 16 µg/mL (≈ 21.6 µM)
- minimal inhibitory concentrations ΔrrnB 1491A [9]: ≧512 μg/ml
- Minimal inhibitory concentrations AG003 [10]: 8 to 16 µg/mL
- minimal inhibitory concentrations ΔrrnB 1408G [11]: ≧512 μg/ml
- Minimal inhibitory concentrations AG006 (AG006 E. coli BM13): 8 to 16 µg/mL
- Minimal inhibitory concentrations AG004 [12]: 8 to 16 µg/mL
- Minimal inhibitory concentrations AG007 [13]: 8 to 16 µg/mL
- Minimal inhibitory concentrations AG011 [14]: 2 µg/mL (≈ 2.7 µM)
- Minimal inhibitory concentrations AG013 [15]: 4 µg/mL (≈ 5.4 µM)
- minimal inhibitory concentrations ΔrrnB [16]: 2 µg/mL
- Minimal inhibitory concentrations AG016 (AG016 S. aureus BM3002): 4 µg/mL (≈ 5.4 µM)

Molecule: Gentamicin [reference compound]
- Minimal inhibitory concentrations AG015 [1]: 4 µg/mL
- Minimal inhibitory concentrations AG014 [3]: ≧256 mg/l
- Minimal inhibitory concentrations AG008 [4]: 64 µg/mL
- Minimal inhibitory concentrations AG009 [5]: 32 µg/mL
- Minimal inhibitory concentrations AG017 (AG017 E. faecalis JH2-2): 8 to 16 µg/mL
- Minimal inhibitory concentrations AG001 [6]: 4 µg/mL
- Minimal inhibitory concentrations AG019 [7]: >256 µg/mL
- Minimal inhibitory concentrations AG002 [8]: 2 µg/mL
- Minimal inhibitory concentrations AG003 [10]: ≧256 mg/l
- Minimal inhibitory concentrations AG006 (AG006 E. coli BM13): 4 µg/mL
- Minimal inhibitory concentrations AG004 [12]: >256 µg/mL
- Minimal inhibitory concentrations AG007 [13]: 128 µg/mL
- Minimal inhibitory concentrations AG011 [14]: 4 µg/mL
- Minimal inhibitory concentrations AG013 [15]: ≧256 mg/l
- Minimal inhibitory concentrations AG016 (AG016 S. aureus BM3002): 1 µg/mL

Molecule: NC[C@H]1O[C@H](O[C@H]2[C@H](O)[C@@H](O[C@H]3O[C@H](CO)[C@@H](O)[C@H](N)[C@H]3O)[C@H](N)C[C@@H]2N)[C@H](O)[C@@H](O)[C@@H]1O [Kanamycin A, kanamycin A, reference compound]
- Minimal inhibitory concentrations AG015 [1]: 256 µg/mL (≈ 528 µM)
- Minimal inhibitory concentrations AG014 [3]: ≧256 mg/l
- Minimal inhibitory concentrations AG008 [4]: 128 µg/mL (≈ 264 µM)
- Minimal inhibitory concentrations AG009 [5]: >256 µg/mL
- Minimal inhibitory concentrations AG017 (AG017 E. faecalis JH2-2): 32 to 64 µg/mL
- Minimal inhibitory concentrations AG001 [6]: 16 µg/mL (≈ 33 µM)
- Minimal inhibitory concentrations AG019 [7]: >256 µg/mL
- Minimal inhibitory concentrations AG002 [8]: 16 µg/mL (≈ 33 µM)
- Minimal inhibitory concentrations AG003 [10]: 32 µg/mL (≈ 66 µM)
- Minimal inhibitory concentrations AG006 (AG006 E. coli BM13): 8 µg/mL (≈ 16.5 µM)
- Minimal inhibitory concentrations AG004 [12]: 64 µg/mL (≈ 132 µM)
- Minimal inhibitory concentrations AG007 [13]: 8 µg/mL (≈ 16.5 µM)
- Minimal inhibitory concentrations AG011 [14]: 16 µg/mL (≈ 33 µM)
- Minimal inhibitory concentrations AG013 [15]: ≧256 mg/l
- Minimal inhibitory concentrations AG016 (AG016 S. aureus BM3002): 4 to 8 µg/mL
